# Assay results taken from patent publication US8895561B2, “Compounds and methods for treating candidiasis and aspergillus infections” (Cellceutix Corporation, priority 2012, dated 2014).
# How the values were obtained:
# Assay type in all cases: cell-based
# [1] = test system: C. albicans GDH2346; assay: Candida IC50, vegetative cells, by OD600 and fluorescence; conditions: vegetative cultures; for IC50: Candida albicans, GDH2346, read-out: Anti-C. albicans GDH2346 Vegetative (IC50)
# Experimental: Candida IC50s were determined by OD600 and fluorescence from vegetative cells and by MTS viability assay in the hyphal state. MICs were determined using a broth microdilution assay under standard CLSI conditions Bacteria strains: E. coli 25922 (EC), S. aureus 27660 (SA), E. faecalis 29212 (EF), P. aeruginosa 10145 (PA), and K. pneumoniae 13883 (KP). Cytotoxicity (EC50) was determined against mouse 3T3 fibroblasts, human transformed liver HepG2 cells, and human oral keratinocyte cell line, OKF6/TERT using an MTS viability assay. Candida IC50s<10 μg/mL, MICs<5 μg/mL and cytotoxicity EC50s>100 μM are indicated in green. MICs>5 μg/mL and cytotoxicity EC50s<100 μM are indicated in red. Candida IC50s (CA) were determined by OD600 and fluorescence from vegetative cells. MICs were determined using a broth microdilution assay under standard CLSI conditions Bacteria strains: E. coli 25922 (EC), S. aureus 27660 (SA), E. faecalis 29212 (EF), P. aeruginosa 10145 (PA), and K. pneumoniae 13883 (KP). Cytotoxicity (EC50) was determined against mouse 3T3 fibroblasts and human transformed liver HepG2 cells using an MTS viability assay. For determination of anti-Candida IC50s, the method was modified by using RPMI/MOPS buffer pH 6.3 and by addition of FDGlu, a substrate for the yeast enzyme exoglucanase which is secreted during cell growth. This provides a fluorescent readout for cell growth which was used in addition to the traditional optical density measure of growth. OD600 and fluorescence were determined at 24 and 48 hours and the average of all 4 reads was used for the final IC50 determination.
# [2] = test system: C. albicans GDH2346 hyphal biofilm; assay: Candida IC50 in the hyphal state / hyphal biofilm, MTS viability assay; conditions: 2-day hyphal biofilm cultures; for IC50: Candida albicans, 48 h, read-out: Anti-C. albicans GDH2346 Hyphal (IC50)
# Experimental: Candida IC50s were determined by OD600 and fluorescence from vegetative cells and by MTS viability assay in the hyphal state. MICs were determined using a broth microdilution assay under standard CLSI conditions Bacteria strains: E. coli 25922 (EC), S. aureus 27660 (SA), E. faecalis 29212 (EF), P. aeruginosa 10145 (PA), and K. pneumoniae 13883 (KP). Cytotoxicity (EC50) was determined against mouse 3T3 fibroblasts, human transformed liver HepG2 cells, and human oral keratinocyte cell line, OKF6/TERT using an MTS viability assay. Candida IC50s<10 μg/mL, MICs<5 μg/mL and cytotoxicity EC50s>100 μM are indicated in green. MICs>5 μg/mL and cytotoxicity EC50s<100 μM are indicated in red. To form the biofilm, yeast were grown in RPMI/MOPS, 0.4% sucrose pH7.4 media supplemented with 10% FBS in tissue culture-treated flat bottom 96 well plates for 48 hours. The filamentous yeast cultures were then vigorously washed to remove any non-filamentous, non-attached yeast. The remaining attached filamentous biofilm yeast were incubated in saline containing serially diluted compounds for 24 hours. The cultures were aspirated to remove compound, rinsed and overlayed with RPMI/MOPS, 0.4% sucrose pH7.4 media. Biofilm viability was measured using a cell proliferation assay (CellTiter96 Aqueous Kit from Promega) and IC50s were determined using Prism GraphPad software (nonlinear fit, Table 3).
# [3] = test system: C. albicans GDH2346; assay: Candida MIC, CLSI M27-A3; conditions: Table 5; for MIC: Candida albicans, GDH2346, read-out: MIC C. albicans
# Experimental: (§1) Candida MIC assays were determined in accordance with CLSI guidelines M27-A3 using a clinically isolated C. albicans strain, GDH2346.50% human serum was added to determine activity in the presence of serum.
# [4] = test system: S. salivarius; assay: Commensal bacteria MIC, broth microdilution; conditions: for MIC: Streptococcus salivarius
# Experimental: (§2) Bacterial MICs were determined using a broth microdilution assay under standard
# (§3) CLSI conditions Bacteria strains: clinical isolates; yeast strains: C. dubliniensis (NCPF3949), C. glabrata (ATCC 90030), C. krusei (ATCC 6258), C. parapsilosis (ATCC 22019), and C. tropicalis (ATCC 750). Cytotoxicity (EC50) was determined against mouse 3T3 fibroblasts, human transformed liver HepG2 cells, and human oral keratinocyte cell line, OKF6/TERT using an MTS viability assay.
# [5] = test system: A. viscosis; assay: Commensal bacteria MIC, broth microdilution
# Experimental: as §2, §3
# [6] = test system: C. krusei (ATCC 6258); assay: Yeast MIC; conditions: for MIC: Pichia kudriavzevii, ATCC6258
# Experimental: as §1, §3
# [7] = test system: C. tropicalis (ATCC 750); assay: Yeast MIC; conditions: for MIC: Candida tropicalis, ATCC750
# Experimental: as §1, §3
# [8] = test system: C. dubliniensis (NCPF3949); assay: Yeast MIC; conditions: Table 5; for MIC: Candida dubliniensis, NCPF3949, read-out: MIC C. dubliniensis
# Experimental: as §1, §3
# [9] = test system: C. glabrata (ATCC 90030); assay: Yeast MIC; conditions: Table 5; for MIC: Nakaseomyces glabratus, ATCC90030, read-out: MIC C. glabrata
# Experimental: as §1, §3
# [10] = test system: C. parapsilosis (ATCC 22019); assay: Yeast MIC; conditions: for MIC: Lodderomyces parapsilosis, ATCC22019
# Experimental: as §1, §3
Structure (SMILES),IC50 [1] [µg/mL],IC50 [2] [µg/mL],MIC [3] [µg/mL],MIC [4] [µg/mL],MIC [5] [µg/mL],MIC [6] [µg/mL],MIC [7] [µg/mL],MIC [8] [µg/mL],MIC [9] [µg/mL],MIC [10] [µg/mL],MIC C. albicans [3] [µg/mL],Anti-C. albicans GDH2346 Vegetative (IC50) [1] [µg/mL],MIC S. salivarius [4] [µg/mL],MIC A. viscosis [5] [µg/mL],MIC C. krusei [6] [µg/mL],MIC C. tropicalis [7] [µg/mL],MIC C. dubliniensis [8] [µg/mL],MIC C. glabrata [9] [µg/mL],MIC C. parapsilosis [10] [µg/mL],Anti-C. albicans GDH2346 Hyphal (IC50) [2] [µg/mL]
NCCc1cc(Br)cc(C#Cc2cccc(C#Cc3cc(Br)cc(CCN)c3)c2)c1 [Compound 164],4.88,11,,,,,,,,,,,,,,,,,,
N=C(N)NCCc1cccc(-c2ccc(-c3cccc(CCNC(=N)N)c3)s2)c1 [Compound 185],1.09,1,2,8,4,2,0.5,2,2,2,,,,,,,,,,
N=C(N)NCCc1cccc(-c2ccc(-c3cccc(CCNC(=N)N)c3)cc2)c1 [Compound 186],1.03,1.4,2,8,4,2,0.5,2,2,2,,,,,,,,,,
N=C(N)NCCc1cccc(-c2ccc(-c3cccc(CCNC(=N)N)c3)o2)c1 [Compound 187],,,,,,,,,,,2,2.20,32,8,4,0.5,4,4,4,
N=C(N)NCCc1cccc(-c2cnc(-c3cccc(CCNC(=N)N)c3)s2)c1 [Compound 188],,,,,,,,,,,2,2.08,64,16,4,0.5,4,4,4,2.22
